Ends that are not written are not given here.
Tests used:
[1] = system: human peripheral blood mononuclear cells (MCP-1); assay: SPOT-synthesized derivative screen: production of chemokine MCP-1; assay type: cell-based; details: Table 12, No LPS, human PBMC, peptide at ~18-24 μM; for MCP1: background subtracted 139 (HH2 derivatives), 170 (1018 derivatives), 242 (1002 and hybrid peptides) pg/ml
Description: Venous blood (20 ml) from healthy volunteers was collected in Vacutainer® collection tubes containing sodium heparin as an anticoagulant (Becton Dickinson, Mississauga, ON) in accordance with UBC ethical approval and guidelines. Blood was diluted 1:1 with complete RPMI 1640 medium and separated by centrifugation over a Ficoll-Paque® Plus (Amersham Biosciences, Piscataway, N.J., USA) density gradient. White blood cells were isolated from the buffy coat, washed twice in RPMI 1640 complete medium, and the number of peripheral blood mononuclear cells (PBMC) was determined by Trypan blue exclusion. PBMC (5×10^5) were seeded into 12-well tissue culture dishes (Falcon; Becton Dickinson) at 0.75 to 1×10^6 cells/ml at 37° C. in 5% CO2. The above conditions were chosen to mimic conditions for circulating blood monocytes entering tissues at the site of infection via extravasation.
Following incubation of the cells under various treatment regimens, the tissue culture supernatants were centrifuged at 1000×g for 5 min, then at 10,000×g for 2 min to obtain cell-free samples. Supernatants were aliquoted and then stored at −20° C. prior to assay for various chemokines by capture ELISA (eBioscience and BioSource International Inc., CA, USA respectively)

[2] = system: methicillin resistant Staphylococcus aureus (MRSA) biofilm; details: approximate peptide concentration […] (around 3 μg/ml); compared to untreated samples
Description: Methods of assessment of anti-biofilm activity—Biofilm formation was initially analyzed using a static abiotic solid surface assay as described elsewhere (de la Fuente-Nunez et al., 2012). Dilutions (1/100) of overnight cultures were incubated in BM2 biofilm-adjusted medium [62 mM potassium phosphate buffer (pH 7), 7 mM (NH4)2SO4, 2 mM MgSO4, 10 μM FeSO4, 0.4% (wt/vol) glucose, 0.5% (wt/vol) Casamino Acids], or a nutrient medium such as Luria Broth, in polypropylene microtiter plates (Falcon, United States) in the absence (control) or presence of peptide. Peptide was added at time zero (prior to adding the diluted, overnight cultures) in varying concentrations, and the decrease in biofilm formation was recorded at 22-46 h for most bacteria. Planktonic cells were removed, biofilm cells adhering to the side of the tubes were stained with crystal violet, and absorbance at 595 nm was measured using a microtiter plate reader (Bio-Tek Instruments Inc., United States). Some peptides were screened against two Gram negative organisms, P. aeruginosa and K. pneumoniae using a Bioflux apparatus (AutoMate Scientific, Berkeley, Calif.; http://www.autom8.com/bioflux_biofilm.html), which allows for the high-throughput, real-time analysis of biofilms.

[3] = system: LPS-stimulated human peripheral blood mononuclear cells (IL1-β); assay type: cell-based; details: Table 12, cells stimulated with 10 ng/ml LPS; for IL1β Production: LPS alone 1313 (HH2 derivatives), 1927 (1018 derivatives), 2455 (1002 and hybrid peptides) pg/ml
Description: LPS from P. aeruginosa strain H103 was highly purified free of proteins and lipids using the Darveau-Hancock method. Briefly, P. aeruginosa was grown overnight in LB broth at 37° C. Cells were collected and washed and the isolated LPS pellets were extracted with a 2:1 chloroform:methanol solution to remove contaminating lipids. Purified LPS samples were quantitated using an assay for the specific sugar 2-keto-3-deoxyoctosonic acid (KDO assay) and then resuspended in endotoxin-free water (Sigma-Aldrich).

Substance	Fold increase in MCP1 cf. untreated cells [1]	MCP1 [1]	% Biofilm inhibition [2]	Fold change in IL1β relative to no peptide LPS stimulated cells [3]	IL1β Production [3]
1018-Q2: single substituted 1018 peptide (VQLIVAVRIWRR-NH2) [Peptide 1018-Q2]	3.5	422 pg/mL	52%	0.10	127 pg/mL
HH2-I9: single substituted HH2 peptide (VQLRIRVAIIRA-NH2)	50	8276 pg/mL	73%	0.75	980 pg/mL
1018-A5: single substituted 1018 peptide (VRLIAAVRIWRR-NH2) [Peptide 1018-A5]	1.3	57 pg/mL	54%	0.57	752 pg/mL
1002-V2: single substituted 1002 peptide (VVRWLIVWRIRK-NH2) [Peptide 1002-V2]	22.5	5209.2 pg/mL	72%	0.05	127 pg/mL
HH2-K11: single substituted HH2 peptide (VQLRIRVAVIKA-NH2)	18	2884 pg/mL	43%	1.21	1593 pg/mL
HH2-V8: single substituted HH2 peptide (VQLRIRVVVIRA-NH2)	45	7460 pg/mL	66%	0.53	691 pg/mL
HH2-A2: single substituted HH2 peptide (VALRIRVAVIRA-NH2)	3.8	471 pg/mL	69%	1.23	1612 pg/mL
1018-K8: single substituted 1018 peptide (VRLIVAVKIWRR-NH2) [Peptide 1018-K8]	8.3	1237 pg/mL	65%	0.18	242 pg/mL
1018-V6: single substituted 1018 peptide (VRLIVVVRIWRR-NH2) [Peptide 1018-V6]	1.6	110 pg/mL	70%	0.17	226 pg/mL
HH2-A4: single substituted HH2 peptide (VQLAIRVAVIRA-NH2)	5.0	672 pg/mL	42%	1.52	2000 pg/mL
HH2-L1: single substituted HH2 peptide (LQLRIRVAVIRA-NH2)	4.8	654 pg/mL	72%	0.94	1234 pg/mL
HH2-Q3: single substituted HH2 peptide (VQQRIRVAVIRA-NH2)	6.8	989 pg/mL	28%	0.87	1141 pg/mL
HH2-I12: single substituted HH2 peptide (VQLRIRVAVIRI-NH2)	18	2845 pg/mL	65%	0.51	667 pg/mL
1002-R8: single substituted 1002 peptide (VQRWLIVRRIRK-NH2) [Peptide 1002-R8]	1.0	-11.7 pg/mL	23%	0.36	892 pg/mL
1002-K5: single substituted 1002 peptide (VQRWKIVWRIRK-NH2) [Peptide 1002-K5]	3.4	592.6 pg/mL	79%	0.14	339 pg/mL
HH2-K5: single substituted HH2 peptide (VQLRKRVAVIRA-NH2)	12	1923 pg/mL	27%	1.19	1559 pg/mL
1018-Q12: single substituted 1018 peptide (VRLIVAVRIWRQ-NH2) [Peptide 1018-Q12]	0.8	-28 pg/mL	57%	0.50	655 pg/mL
1018-I2: single substituted 1018 peptide (VILIVAVRIWRR-NH2) [Peptide 1018-I2]	44	7342 pg/mL	61%	0.42	557 pg/mL
HH2-G3: single substituted HH2 peptide (VQGRIRVAVIRA-NH2)	1.7	117 pg/mL	21%	1.29	1687 pg/mL
1018-I11: single substituted 1018 peptide (VRLIVAVRIWIR-NH2) [Peptide 1018-I11]	1.5	83 pg/mL	16%	1.35	1775 pg/mL
HH2-I11: single substituted HH2 peptide (VQLRIRVAVIIA-NH2)	60	9977 pg/mL	55%	1.07	1402 pg/mL
